Results published in ChEMBL document CHEMBL1131296 (J Med Chem, 1998).

Legend:
[1] = target: T1, Alpha-1A adrenergic receptor (Rattus norvegicus, UniProt P43140); experiment: Antagonism of the norepinephrine induced contraction of rat isolated prostatic vas deferens.; assay type: functional; settings: read-out: pA2 (converted)
T1 sequence (P43140 whole entry): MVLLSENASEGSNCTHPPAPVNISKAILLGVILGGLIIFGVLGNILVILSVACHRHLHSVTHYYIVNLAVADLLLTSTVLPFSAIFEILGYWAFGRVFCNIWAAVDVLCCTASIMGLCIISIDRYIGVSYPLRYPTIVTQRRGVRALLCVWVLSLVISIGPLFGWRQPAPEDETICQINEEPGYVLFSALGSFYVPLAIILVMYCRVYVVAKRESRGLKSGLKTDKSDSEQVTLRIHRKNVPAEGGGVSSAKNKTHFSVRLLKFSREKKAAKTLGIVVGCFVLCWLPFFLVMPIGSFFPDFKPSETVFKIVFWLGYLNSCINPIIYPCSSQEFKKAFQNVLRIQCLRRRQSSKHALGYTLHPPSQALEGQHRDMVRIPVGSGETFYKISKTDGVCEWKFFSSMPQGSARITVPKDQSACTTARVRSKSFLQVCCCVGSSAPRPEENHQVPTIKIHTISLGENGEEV

[2] = target: T2, 5-hydroxytryptamine receptor 1A (Homo sapiens, UniProt P08908); experiment: Binding affinity at human cloned 5-hydroxytryptamine 1A receptor expressed in HeLa cells by [3H]8-hydroxy-2-(di-n-propylamino)tetraline displacement.; assay type: cell-based
T2 sequence (P08908 whole entry): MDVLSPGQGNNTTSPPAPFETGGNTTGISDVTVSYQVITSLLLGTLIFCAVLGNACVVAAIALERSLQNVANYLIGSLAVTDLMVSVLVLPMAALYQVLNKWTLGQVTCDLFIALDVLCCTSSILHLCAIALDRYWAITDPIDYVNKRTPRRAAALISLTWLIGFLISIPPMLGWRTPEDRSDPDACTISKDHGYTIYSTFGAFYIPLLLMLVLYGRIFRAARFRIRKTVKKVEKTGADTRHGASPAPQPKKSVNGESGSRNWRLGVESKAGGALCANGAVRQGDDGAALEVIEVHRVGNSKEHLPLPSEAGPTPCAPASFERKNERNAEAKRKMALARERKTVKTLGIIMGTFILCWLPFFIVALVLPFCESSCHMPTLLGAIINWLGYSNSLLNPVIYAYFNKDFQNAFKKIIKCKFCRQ

[3] = target: T3, Adrenergic receptor alpha-2 (Rattus norvegicus, UniProt P22086+P19328+P22909); experiment: Antagonism of the clonidine-induced depression of twitch responses of rat isolated prostatic vas deferens.
T3 sequence (P22086 whole entry): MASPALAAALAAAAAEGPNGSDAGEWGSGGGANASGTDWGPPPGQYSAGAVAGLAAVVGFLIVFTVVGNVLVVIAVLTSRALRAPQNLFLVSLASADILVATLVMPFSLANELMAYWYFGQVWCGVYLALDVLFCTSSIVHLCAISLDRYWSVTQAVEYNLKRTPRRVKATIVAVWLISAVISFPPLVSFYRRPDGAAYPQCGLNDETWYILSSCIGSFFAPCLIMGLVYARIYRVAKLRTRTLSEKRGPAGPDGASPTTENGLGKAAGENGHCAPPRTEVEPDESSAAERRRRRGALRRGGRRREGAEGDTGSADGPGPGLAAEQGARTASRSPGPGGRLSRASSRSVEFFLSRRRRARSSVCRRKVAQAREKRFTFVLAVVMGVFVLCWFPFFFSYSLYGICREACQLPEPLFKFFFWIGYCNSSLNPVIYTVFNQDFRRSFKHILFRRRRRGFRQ
T3 sequence (P19328 whole entry): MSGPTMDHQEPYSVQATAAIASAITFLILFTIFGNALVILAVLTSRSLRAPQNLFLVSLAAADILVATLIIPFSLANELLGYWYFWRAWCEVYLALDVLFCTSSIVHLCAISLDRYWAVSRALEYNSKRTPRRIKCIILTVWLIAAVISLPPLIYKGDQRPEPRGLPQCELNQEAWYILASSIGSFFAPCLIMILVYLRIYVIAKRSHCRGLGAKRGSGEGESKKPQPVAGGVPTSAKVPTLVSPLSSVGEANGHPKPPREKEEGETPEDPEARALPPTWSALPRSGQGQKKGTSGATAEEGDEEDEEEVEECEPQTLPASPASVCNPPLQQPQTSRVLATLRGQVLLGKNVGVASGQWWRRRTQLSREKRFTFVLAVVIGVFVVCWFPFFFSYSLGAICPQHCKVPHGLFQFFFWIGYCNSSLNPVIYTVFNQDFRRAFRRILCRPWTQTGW
T3 sequence (P22909 whole entry): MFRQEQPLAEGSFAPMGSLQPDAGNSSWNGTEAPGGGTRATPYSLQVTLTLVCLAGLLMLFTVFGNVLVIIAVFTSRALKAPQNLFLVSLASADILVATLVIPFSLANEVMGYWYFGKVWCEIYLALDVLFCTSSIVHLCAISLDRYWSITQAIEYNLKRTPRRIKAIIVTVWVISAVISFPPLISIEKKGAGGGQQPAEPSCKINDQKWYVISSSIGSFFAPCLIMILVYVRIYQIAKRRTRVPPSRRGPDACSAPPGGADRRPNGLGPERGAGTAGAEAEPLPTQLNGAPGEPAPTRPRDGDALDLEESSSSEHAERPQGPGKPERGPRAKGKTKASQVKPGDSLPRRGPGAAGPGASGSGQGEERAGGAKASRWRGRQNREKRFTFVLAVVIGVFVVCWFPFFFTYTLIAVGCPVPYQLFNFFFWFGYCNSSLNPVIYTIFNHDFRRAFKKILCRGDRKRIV

[4] = target: T4, Alpha-1D adrenergic receptor (Homo sapiens, UniProt P25100); experiment: Binding affinity at human cloned Alpha-1D adrenergic receptor in chinese hamster ovary cells by [3H]prazosin displacement.; assay type: cell-based, CHO
T4 sequence (P25100 whole entry): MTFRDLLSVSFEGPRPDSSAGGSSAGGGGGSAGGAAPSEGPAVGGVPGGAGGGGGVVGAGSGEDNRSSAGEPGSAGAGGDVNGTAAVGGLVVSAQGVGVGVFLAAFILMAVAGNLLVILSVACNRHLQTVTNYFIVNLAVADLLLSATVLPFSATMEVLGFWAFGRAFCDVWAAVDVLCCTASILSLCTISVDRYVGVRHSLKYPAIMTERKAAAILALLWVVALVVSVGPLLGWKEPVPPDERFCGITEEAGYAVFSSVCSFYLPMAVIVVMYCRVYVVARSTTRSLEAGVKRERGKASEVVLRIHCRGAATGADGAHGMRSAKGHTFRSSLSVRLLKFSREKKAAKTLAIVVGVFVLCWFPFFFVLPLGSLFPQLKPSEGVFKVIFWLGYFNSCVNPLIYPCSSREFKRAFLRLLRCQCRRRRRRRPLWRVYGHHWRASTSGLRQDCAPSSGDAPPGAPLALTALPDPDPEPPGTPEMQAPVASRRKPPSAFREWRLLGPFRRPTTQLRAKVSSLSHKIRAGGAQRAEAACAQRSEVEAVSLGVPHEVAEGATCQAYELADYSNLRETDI

[5] = target: T3, Adrenergic receptor alpha-2; experiment: Binding affinity at native Alpha-2 adrenergic receptor in rat cerebral cortex by [3H]rauwolscine displacement.; assay type: tissue-based

- Kb [1]: 55 nM
- Ki [2]: 741 nM
- pA2 [3]: < 5
- Ki [4]: 0.245 nM
- Log Ki [5]: -7.72
SMILES: COc1cc2nc(N(C)CCCCCCN(C)C(=O)c3cccc(CN(C)C)c3)nc(N)c2cc1OC
